Test results from patent US20250034173A1, “PYRIDO[4,3-D]PYRIMIDINE COMPOUNDS” (PFIZER INC., priority 2023, published 2025).

Tests used:
[1] = biological target: KRAS Wild Type (Homo sapiens (Human), UniProt P01116); test: SPR binding affinity and kinetics, GTPγS-loaded KRAS Wild Type; conditions: GTPγS loaded protein, geomean
Excerpt: (§1) No additional regeneration was used.
(§2) Compound dissociation was monitored for at least 3600 seconds. […] No additional regeneration was used.
(§3) The adequateness of the fit was judged by c2 values and the randomness of residue distribution.

[2] = biological target: KRAS G12D (Homo sapiens (Human), UniProt P01116, G12D); test: SPR binding affinity and kinetics, GTPγS-loaded KRAS G12D; conditions: GTPγS loaded protein, geomean
Excerpt: as §1, §2, §3

[3] = biological target: KRAS G12C (Homo sapiens (Human), UniProt P01116, G12C); test: SPR binding affinity and kinetics, GTPγS-loaded KRAS G12C; conditions: GTPγS loaded protein, geomean
Excerpt: as §1, §2, §3

[4] = biological target: KRAS G12V (Homo sapiens (Human), UniProt P01116, G12V); test: SPR binding affinity and kinetics, GTPγS-loaded KRAS G12V; conditions: GTPγS loaded protein, geomean
Excerpt: as §1, §2, §3

[5] = system: H358 (non-small cell lung cancer cell line); test: KRAS Cell Titer Glo (CTG) cell proliferation assay, H358; type: cell-based; conditions: Homo sapiens, NCI-H358, 168 h; H358 cells, 7-day CTG, geomean IC50
Excerpt: (§4) The CellTiter-Glo® (CTG) Luminescent Cell Viability Assay is a homogeneous method of determining the number of viable cells in culture based on quantitation of the ATP present, an indicator of metabolically active cells. The CTG is designed for use with multi-well formats, making it ideal for automated high-throughput screening (HTS), cell proliferation and cytotoxicity assays. The homogeneous assay procedure involves adding the single reagent (CellTiter-Glo® Reagent) directly to cells cultured in serum-supplemented medium. Cell washing, removal of medium and multiple pipetting steps are not required. The system detects as few as 15 cells per well in a 384-well format in 10 minutes after adding reagent and mixing.
(§5) Cells are grown in humidified 5% CO2 incubator at 37° C. using the culture conditions outlined below. All cell culture media reagents were purchased from Gibco. Cell lines purchased from ATCC: H358 (non-small cell lung cancer cell line), SW620 (colorectal cancer cell line), PANC08.13 (RPM11640+10% FBS+10 units/mL Insulin, pancreatic cancer cell line). Test and control compounds are dispensed as nanoliter drops according to desired final concentrations in 0.1% DMSO using Echo Acoustic Dispenser onto 384 assay plates (Corning, Cat #3764) prior to cell seeding. Cells were seeded in 40 μL volume per well at the following cell densities (cells per well): H358 (300), SW620 (750), PANC 08.13 (600). Cells are incubated in the presence of compound for 7-days. Viability is determined on Day 7 using CellTiter-Glo® (CTG) Luminescent Cell Viability Assay (Promega). CTG is added to a […] per well and incubated at room temperature for 15 minutes before luminescence is captured using an EnVision Reader with LUM384 US protocol. Data is analyzed using Activity Base to determine compound response and will be represented either as a percent effect (PCTEFF) or percent control (PCTOCTL) as described: Zero percent effect control (ZPE) (Negative control)—100% DMSO. Hundred percent effect (HPE) (Positive control)—1 uM Trametinib (GSK1120212, MEK inhibitor) (4 nl of 10 mM and 36 nl of DMSO per well). The following equations/nomenclature are used (% Effect; PCTEFF) and (% of Control; PCTOCTL): PCTEFF: 100*(Raw_Data_Value−HPE/ZPE−HPE), PCTOCTL: 100*Raw_Data_Value/User_Defined_Array), where the User_Defined_Array is either summarized HPE or ZPE.
(§6) Cells with “nd” indicate compound not tested in that particular assay at time of writing. It is to be understood that the geomean IC50 data may change slightly over time with increasing repeat data (ie: increasing n #).

[6] = system: SW620 (colorectal cancer cell line); test: KRAS Cell Titer Glo (CTG) cell proliferation assay, SW620; type: cell-based; conditions: Homo sapiens, SW-620, 168 h; SW620 cells, 7-day CTG, geomean IC50
Excerpt: as §4, §5, §6

[7] = system: PANC08.13 (pancreatic cancer cell line); test: KRAS Cell Titer Glo (CTG) cell proliferation assay, PANC08.13; type: cell-based; conditions: Homo sapiens, PANC-08-13, 168 h; PANC08.13 cells, 7-day CTG, geomean IC50
Excerpt: as §4, §5, §6

KRAS G12C, sequence (P01116 other isoform, or with tags, fused parts or gaps G12C): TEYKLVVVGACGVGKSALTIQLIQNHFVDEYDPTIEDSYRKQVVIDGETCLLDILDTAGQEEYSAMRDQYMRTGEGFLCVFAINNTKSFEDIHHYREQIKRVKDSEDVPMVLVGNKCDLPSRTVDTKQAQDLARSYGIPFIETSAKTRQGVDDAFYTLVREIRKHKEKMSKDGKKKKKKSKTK
KRAS Wild Type, sequence (P01116 other isoform, or with tags, fused parts or gaps): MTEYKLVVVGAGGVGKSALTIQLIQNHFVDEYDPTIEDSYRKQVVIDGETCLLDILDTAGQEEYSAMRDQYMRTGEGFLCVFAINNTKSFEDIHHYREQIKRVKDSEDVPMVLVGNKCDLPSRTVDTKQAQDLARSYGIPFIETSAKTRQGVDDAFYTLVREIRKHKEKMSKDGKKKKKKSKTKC
KRAS G12D, sequence (P01116 other isoform, or with tags, fused parts or gaps G12D): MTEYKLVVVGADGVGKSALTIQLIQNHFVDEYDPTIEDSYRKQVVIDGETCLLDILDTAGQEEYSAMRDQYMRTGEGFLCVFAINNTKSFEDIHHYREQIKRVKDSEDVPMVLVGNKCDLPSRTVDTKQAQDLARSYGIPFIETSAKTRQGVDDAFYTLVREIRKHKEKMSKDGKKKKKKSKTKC
KRAS G12V, sequence (P01116 other isoform, or with tags, fused parts or gaps G12V): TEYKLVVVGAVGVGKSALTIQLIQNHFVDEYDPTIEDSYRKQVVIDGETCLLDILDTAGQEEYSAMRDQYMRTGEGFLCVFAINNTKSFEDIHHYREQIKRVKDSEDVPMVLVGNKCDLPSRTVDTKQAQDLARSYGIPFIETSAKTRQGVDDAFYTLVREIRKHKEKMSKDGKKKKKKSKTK

Row | Compound | Kd [1] | Kd [2] | Kd [3] | Kd [4] | IC50 [5] | IC50 [6] | IC50 [7]
1 | C=C1CN2CC(F)C[C@@]2(COc2nc3c4c(nc(-c5c(C6CC6)c(Cl)cc6[nH]ncc56)c(F)c4n2)OC[C@@H]2COCCCN32)C1 (stereo partly drawn) [Example 14, (8aS)-5-(6-chloro-5-cyclopropyl-1H-indazol-4-yl)-4-fluoro-2-{[(2R,7aR)-2-fluoro-6-methylidenetetrahydro-1H-pyrrolizin-7a(5H)-yl]methoxy}-8a,9,12,13-tetrahydro-8H,11H-7,10-dioxa-1,3,6,13a-tetraazanaphtho[1,8-ab]heptalene] | 0.008 µM | 0.005 µM | 0.009 µM | 0.007 µM | 0.08 µM | 0.03 µM | 0.013 µM
2 | F/C=C1/CN2CCC[C@@]2(COc2nc3c4c(nc(-c5c(C6CC6)c(Cl)cc6[nH]ncc56)c(F)c4n2)OC[C@@H]2COCCCN32)C1 [Example 15, (8aS)-5-(6-chloro-5-cyclopropyl-1H-indazol-4-yl)-4-fluoro-2-{[(2E,7aS)-2-(fluoromethylidene)tetrahydro-1H-pyrrolizin-7a(5H)-yl]methoxy}-8a,9,12,13-tetrahydro-8H,11H-7,10-dioxa-1,3,6,13a-tetraazanaphtho[1,8-ab]heptalene] | 0.004 µM | 0.002 µM | 0.005 µM | 0.004 µM | 0.03 µM | 0.031 µM | 0.003 µM
3 | C=C1CN2C[C@@H](O)C[C@@]2(COc2nc3c4c(nc(-c5c(C6CC6)c(Cl)cc6[nH]ncc56)c(F)c4n2)OC[C@@H]2COCCCN32)C1 [Example 17, (2S,7aR)-7a-({[(8aS)-5-(6-chloro-5-cyclopropyl-1H-indazol-4-yl)-4-fluoro-8a,9,12,13-tetrahydro-8H,11H-7,10-dioxa-1,3,6,13a-tetraazanaphtho[1,8-ab]heptalen-2-yl]oxy}methyl)-6-methylidenehexahydro-1H-pyrrolizin-2-ol] | 0.005 µM | 0.003 µM | 0.005 µM | 0.004 µM | 0.08 µM | 0.19 µM | 0.031 µM
4 | Fc1c(-c2c(C3CC3)c(Cl)cc3[nH]ncc23)nc2c3c(nc(OC[C@@]45CCCN4CC4(CC4)C5)nc13)N1CCCOC[C@H]1CO2 [Example 18, (8aS)-2-{[(7′aS)-dihydro-1′H,3′H-spiro[cyclopropane-1,2′-pyrrolizin]-7′a(5′H)-yl]methoxy}-5-(6-chloro-5-cyclopropyl-1H-indazol-4-yl)-4-fluoro-8a,9,12,13-tetrahydro-8H,11H-7,10-dioxa-1,3,6,13a-tetraazanaphtho[1,8-ab]heptalene] | 0.061 µM | 0.034 µM | 0.064 µM | 0.061 µM | 0.304 µM | 0.479 µM | 0.068 µM
5 | C=C1CN2C[C@H](O)C[C@@]2(COc2nc3c4c(nc(-c5c(C6CC6)c(Cl)cc6[nH]ncc56)c(F)c4n2)OC[C@@H]2COCCCN32)C1 [Example 25, (2R,7aR)-7a-({[(8aS)-5-(6-chloro-5-cyclopropyl-1H-indazol-4-yl)-4-fluoro-8a,9,12,13-tetrahydro-8H,11H-7,10-dioxa-1,3,6,13a-tetraazanaphtho[1,8-ab]heptalen-2-yl]oxy}methyl)-6-methylidenehexahydro-1H-pyrrolizin-2-ol] | 0.004 µM | 0.003 µM | 0.002 µM | 0.002 µM | 0.041 µM | 0.022 µM | 0.013 µM
6 | C/C=C1/CN2CCC[C@@]2(COc2nc3c4c(nc(-c5c(C6CC6)c(Cl)cc6[nH]ncc56)c(F)c4n2)OC[C@@H]2COCCCN32)C1 [Example 27, (8aS)-5-(6-chloro-5-cyclopropyl-1H-indazol-4-yl)-2-{[(2E,7aS)-2-ethylidenetetrahydro-1H-pyrrolizin-7a(5H)-yl]methoxy}-4-fluoro-8a,9,12,13-tetrahydro-8H,11H-7,10-dioxa-1,3,6,13a-tetraazanaphtho[1,8-ab]heptalene] | 0.009 µM | 0.004 µM | 0.003 µM | 0.006 µM | 0.072 µM | 0.074 µM | 0.009 µM

Second part, the compound after the results:

Row | Kd [1] | Kd [2] | Kd [3] | Kd [4] | IC50 [5] | IC50 [6] | IC50 [7] | Compound
7 | 0.046 µM | 0.019 µM | 0.039 µM | 0.036 µM | 0.768 µM | 1.42 µM | 0.161 µM | C=C1CN2CCC[C@@]2(COc2nc3c4c(nc(-c5c6c(cc7[nH]ncc57)CCC[C@@H]6C)c(F)c4n2)OC[C@@H]2COCCCN32)C1 [Example 32, (8aS)-4-fluoro-2-{[(7aS)-2-methylidenetetrahydro-1H-pyrrolizin-7a(5H)-yl]methoxy}-5-[(5S)-5-methyl-5,6,7,8-tetrahydro-1H-benzo[f]indazol-4-yl]-8a,9,12,13-tetrahydro-8H,11H-7,10-dioxa-1,3,6,13a-tetraazanaphtho[1,8-ab]heptalene]
8 | 0.008 µM | 0.006 µM | 0.006 µM | 0.006 µM | 0.058 µM | 0.103 µM | 0.018 µM | C=C1CN2CCC[C@@]2(COc2nc3c4c(nc(-c5c(CC)c(Cl)cc6[nH]ncc56)c(F)c4n2)OC[C@@H]2COCCCN32)C1 [Example 33, (8aS)-5-(6-chloro-5-ethyl-1H-indazol-4-yl)-4-fluoro-2-{[(7aS)-2-methylidenetetrahydro-1H-pyrrolizin-7a(5H)-yl]methoxy}-8a,9,12,13-tetrahydro-8H,11H-7,10-dioxa-1,3,6,13a-tetraazanaphtho[1,8-ab]heptalene]
9 | > 10 µM | > 10 µM | > 10 µM | > 10 µM | > 9.99 µM | > 9.99 µM | 9.35 µM | C=C1CN2CCC[C@@]2(COc2nc3c4c(nc(-c5cccc6[nH]ncc56)c(F)c4n2)OC[C@@H]2COCCCN32)C1 [Example 34, (8aS)-4-fluoro-5-(1H-indazol-4-yl)-2-{[(7aS)-2-methylidenetetrahydro-1H-pyrrolizin-7a(5H)-yl]methoxy}-8a,9,12,13-tetrahydro-8H,11H-7,10-dioxa-1,3,6,13a-tetraazanaphtho[1,8-ab]heptalene]
10 | 0.011 µM | 0.008 µM | 0.012 µM | 0.012 µM | 0.126 µM | 0.049 µM | 0.01 µM | Fc1c(-c2c(C3CC3)c(Cl)cc3[nH]ncc23)nc2c3c(nc(OC[C@@]45C[C@@H](F)CN4CC4(CC4)C5)nc13)N1CCCOC[C@H]1CO2 [Example 35, (8aS)-2-{[(6′R,7′aR)-6′-fluorodihydro-1′H,3′H-spiro[cyclopropane-1,2′-pyrrolizin]-7′a(5′H)-yl]methoxy}-5-(6-chloro-5-cyclopropyl-1H-indazol-4-yl)-4-fluoro-8a,9,12,13-tetrahydro-8H,11H-7,10-dioxa-1,3,6,13a-tetraazanaphtho[1,8-ab]heptalene]
11 | 0.004 µM | 0.002 µM | 0.003 µM | 0.004 µM | 0.008 µM | 0.018 µM | 0.002 µM | C=C1CN2CCC[C@@]2(COc2nc3c4c(nc(-c5c(C6CC6)c(Cl)cc6[nH]ncc56)c(F)c4n2)OC[C@@H]2COCC[C@H](C)N32)C1 [Example 38, (8aS,13S)-5-(6-chloro-5-cyclopropyl-1H-indazol-4-yl)-4-fluoro-13-methyl-2-{[(7aS)-2-methylidenetetrahydro-1H-pyrrolizin-7a(5H)-yl]methoxy}-8a,9,12,13-tetrahydro-8H,11H-7,10-dioxa-1,3,6,13a-tetraazanaphtho[1,8-ab]heptalene]
